# Reference: patent US7655434B2, “Live-cell biosensor polypeptides and methods of use” (The Board of Trustees of the Leland Stanford Junior …, priority 2004, dated 2010)
# Columns and labels:
# Hela cells = conditions: cited from earlier work
# RBL-FMB cells [1] = assay: Mitotic index by immunofluorescence; assay type: cell-based, rat; conditions: 20 hours
# Description: Mitotic index was determined as previously described (Jordan et al., […] 56:816-825 (1996)). Briefly, 15,000 RBL-FMB cells plated in 8 well Labtek chambers (Nalge Nunc, Naperville, Ill.) and exposed to paclitaxel (Sigma Aldrich, St Louis) for 20 hours. The cells were fixed and permeablized with −20° C. cold methanol for 5 minutes at −20° C. They were blocked with 10% fetal calf serum in PBS for 10 minutes at RT. Alpha Tubulin was detected with a mouse monoclonal antibody clone GTU-88 (Sigma Aldrich, St. Louis Mo.). DNA was stained with Hoescht 33342 (Molecular Probes, Eugene, Oreg.). Only cells that were clearly in metaphase or anaphase were counted as a percentage of the total. The cells were imaged with a Zeiss epifluorescence microscope (Carl Zeiss, Germany).
# RBL-FMB cells [2] = assay: TIRF based mitosis monitoring system, cells treated with TAXOL; assay type: cell-based, rat
# Description: Rat Basophilic Leukemia Cells (RBL) were grown in Dulbecco's modified Eagles Media (DMEM) supplemented with 10% fetal calf serum, 2 mM glutamine, 100 U/ml penicillin, and 100 μg/ml streptomycin (all from Invitrogen, Carlsbad, Calif.). 10 million cells were electroporated (BioRad, Hercules, Calif.) in 600 μl of media with 40 μg of pFMB. These were allowed to recover for 48 hours and cells stably expressing the biosensor were selected for by the addition of 1 μg/ml Geneticin (Invitrogen, Carlsbad, Calif.). 10 days after the addition of Geneticin the cells were sorted based on EYFP fluorescence using a fluorescence activated cell sorter.
# TIRF microscopy was carried out as described previously (Tengholm et al., Science's Stke. 2003 PL4 (2004)). Briefly, an argon-ion laser provided 514-nm laser light for excitation of the biosensor (Lexel Laser, Fremont, Calif.). Exposure of the RBL-FMBs to laser light was controlled by a Uniblitz shutter (Vincent, Rochester, N.Y.). Laser light homogenized with a rotating diffuser (Physical Optics, Torrance, Calif.) was refocused onto a dove prism at an angle yielding total internal reflection (>[…] for a glass-water interface at 37° C.). The excitation light could also be redirected to the back of the microscope and down to the sample via appropriate dichroic mirrors (Chroma Technology, Brattleboro, Vt.) for epi-illumination. Fluorescence was recorded at 530 nm with bandpass interference filters (30-50 nm half-bandwidth; Chroma Technology, Brattleboro, Vt.) mounted in a Sutter Lambda 10-2 filter wheel (Sutter Instrument, Novato, Calif.). Images were captured every 2 minutes with a cooled CCD camera (Micromax; Roper Scientific, Tuscon, Azir.). The shutters, filter wheel, and camera were controlled by Metamorph software (Universal Imaging, Downington, Pa.).
# Both systems were heated with an ASI 400 Air Stream Incubator (Nevtek, Burnsville, Va.). The cells were perfused with fresh growth media saturated with 10% CO2 that was heated with an inline solution heater (Warner Instruments, Hamden, Conn.).
# Metamorph software (Universal Imaging, Downington Pa.) was used for data image analysis. Fluorescence intensity was recorded over the entire stack of images by drawing regions of interest over each mitotic cell. Background correction was performed by subtracting the intensity of a background region of identical size next to each cell to account for the somewhat uneven background in the field of view over the time of the data collection. Background corrected intensity values were exported to a Microsoft Excel file and plotted. NEB was determined as the time just prior to the dramatic increase in fluorescence intensity. Anaphase onset is defined as the time point immediately preceding the second smaller increase in fluorescence. NER was determined as the point in time when fluorescence intensity starts to decrease back to baseline levels.
structure (smiles),measurement,setting,value
"CC(=O)O[C@H]1C(=O)[C@@]2(C)[C@H]([C@H](OC(=O)c3ccccc3)[C@]3(O)C[C@H](OC(=O)[C@H](O)[C@@H](NC(=O)c4ccccc4)c4ccccc4)C(C)=C1C3(C)C)[C@]1(OC(C)=O)CO[C@@H]1C[C@@H]2O [TAXOL™, paclitaxel]","microtubule stabilization effect, concentration range",Hela cells,nM concentration range
same,percentage of mitotic cells (mitotic index),RBL-FMB cells [1]; higher taxol concentrations,increased
same,effects on mitotic index,RBL-FMB cells [1]; low TAXOL concentrations,went unseen
same,Mitotic arrest,RBL-FMB cells [2]; 10 nM,arrested for the duration of the experiment
same,Anaphase-NER Ave.,RBL-FMB cells [2]; [Taxol] 0.01,8.4 min
same,Anaphase-NER Med.,RBL-FMB cells [2]; [Taxol] 0.01,8 min
same,NEB-NER Med.,RBL-FMB cells [2]; [Taxol] 0.01,34 min
same,NEB-anaphase Ave.,RBL-FMB cells [2]; [Taxol] 0.01,28.4 min
same,NEB-anaphase Med.,RBL-FMB cells [2]; [Taxol] 0.01,26 min
same,NEB-NER Ave.,RBL-FMB cells [2]; [Taxol] 0.01 (10 pM in text),35.6 min
same,Anaphase-NER Ave.,RBL-FMB cells [2]; [Taxol] 0.1,8.8 min
same,Anaphase-NER Med.,RBL-FMB cells [2]; [Taxol] 0.1,8 min
same,NEB-NER Ave.,RBL-FMB cells [2]; [Taxol] 0.1,38.1 min
same,NEB-NER Med.,RBL-FMB cells [2]; [Taxol] 0.1,36 min
same,NEB-anaphase Ave.,RBL-FMB cells [2]; [Taxol] 0.1,29.6 min
same,NEB-anaphase Med.,RBL-FMB cells [2]; [Taxol] 0.1,26 min
same,Anaphase-NER Ave.,RBL-FMB cells [2]; [Taxol] 1,10.3 min
same,Anaphase-NER Med.,RBL-FMB cells [2]; [Taxol] 1,10 min
same,NEB-NER Ave.,RBL-FMB cells [2]; [Taxol] 1,40.0 min
same,NEB-NER Med.,RBL-FMB cells [2]; [Taxol] 1,38 min
same,NEB-anaphase Ave.,RBL-FMB cells [2]; [Taxol] 1,29.8 min
same,NEB-anaphase Med.,RBL-FMB cells [2]; [Taxol] 1,28 min
same,Anaphase-NER Ave.,RBL-FMB cells [2]; [Taxol] 3,10.3 min
same,Anaphase-NER Med.,RBL-FMB cells [2]; [Taxol] 3,8 min
same,NEB-NER Ave.,RBL-FMB cells [2]; [Taxol] 3,62.8 min
same,NEB-NER Med.,RBL-FMB cells [2]; [Taxol] 3,50 min
same,NEB-anaphase Ave.,RBL-FMB cells [2]; [Taxol] 3,44.6 min
same,NEB-anaphase Med.,RBL-FMB cells [2]; [Taxol] 3,34 min
same,Anaphase-NER Ave.,RBL-FMB cells [2]; [Taxol] 4,9.8 min
same,Anaphase-NER Med.,RBL-FMB cells [2]; [Taxol] 4,10 min
same,NEB-NER Ave.,RBL-FMB cells [2]; [Taxol] 4,89.7 min
same,NEB-NER Med.,RBL-FMB cells [2]; [Taxol] 4,70 min
same,NEB-anaphase Ave.,RBL-FMB cells [2]; [Taxol] 4,77.7 min
same,NEB-anaphase Med.,RBL-FMB cells [2]; [Taxol] 4,60 min
same,Anaphase-NER Ave.,RBL-FMB cells [2]; [Taxol] 5,11.3 min
same,Anaphase-NER Med.,RBL-FMB cells [2]; [Taxol] 5,12 min
same,NEB-NER Ave.,RBL-FMB cells [2]; [Taxol] 5,112.2 min
same,NEB-NER Med.,RBL-FMB cells [2]; [Taxol] 5,102 min
same,NEB-anaphase Ave.,RBL-FMB cells [2]; [Taxol] 5,107.4 min
same,NEB-anaphase Med.,RBL-FMB cells [2]; [Taxol] 5,114 min
same,Anaphase-NER Ave.,RBL-FMB cells [2]; [Taxol] 6,13.3 min
same,Anaphase-NER Med.,RBL-FMB cells [2]; [Taxol] 6,11 min
same,NEB-NER Ave.,RBL-FMB cells [2]; [Taxol] 6,194.5 min
same,NEB-NER Med.,RBL-FMB cells [2]; [Taxol] 6,186 min
same,NEB-anaphase Ave.,RBL-FMB cells [2]; [Taxol] 6,183.3 min
same,NEB-anaphase Med.,RBL-FMB cells [2]; [Taxol] 6,175 min
same,Anaphase-NER Ave.,RBL-FMB cells [2]; [Taxol] 7.5,12.3 min
same,Anaphase-NER Med.,RBL-FMB cells [2]; [Taxol] 7.5,12 min
same,NEB-NER Ave.,RBL-FMB cells [2]; [Taxol] 7.5,202.1 min
same,NEB-NER Med.,RBL-FMB cells [2]; [Taxol] 7.5,195 min
same,NEB-anaphase Ave.,RBL-FMB cells [2]; [Taxol] 7.5,171.1 min
same,NEB-anaphase Med.,RBL-FMB cells [2]; [Taxol] 7.5,166 min
same,Anaphase-NER Ave.,RBL-FMB cells [2]; [Taxol] 8,12.1 min
same,Anaphase-NER Med.,RBL-FMB cells [2]; [Taxol] 8,12 min
same,NEB-NER Ave.,RBL-FMB cells [2]; [Taxol] 8,192.7 min
same,NEB-NER Med.,RBL-FMB cells [2]; [Taxol] 8,189 min
same,NEB-anaphase Ave.,RBL-FMB cells [2]; [Taxol] 8,180.3 min
same,NEB-anaphase Med.,RBL-FMB cells [2]; [Taxol] 8,178 min
same,anaphase to NER phase (post-checkpoint),RBL-FMB cells [2]; increasing TAXOL,smaller and ungraded effects
same,timing between NEB and anaphase (pre-checkpoint mitosis phase),RBL-FMB cells [2]; increasing TAXOL,significantly prolonged
